Experiment [1] relates to HCT116 pERK. The experiment can be described thus: Phospho-ERK inhibition, AlphaLISA SureFire Ultra p-ERK 1/2. It counts as cell-based, human. To be noted: Table 3; for IC50: 1 h treatment; for HCT116 (Ymin %): lowest value of the pERK IC50 curve. Here is the method:
(§1) All cancer cell lines (A375, A101D, A2058, RKO, HT29 SK-MEL 30, IPC298, HepG2, HCT-116, Lovo, SW620, SW480, NCI-H358, NCI-H2122, Calu-6, NCIH2087, NCIH1755, NCIH1666 and Mewo) were obtained from ATCC and cultured in RPMI-1640 medium (Gibco) supplemented with 5% heat inactivated fetal bovine serum (FBS, Wisent) at 37° C. under 5% CO2. Cells were maintained in T175 flasks (Greiner). They were passaged by removing the culture medium, washing once in 10 mL of room temperature Phosphate Buffered Saline (PBS; Wisent) and incubating at 37° C. with 2 mL of 0.05% Trypsin (Thermo-Fisher). Trypsin was then inactivated by adding complete growth medium and the cells were then replated in a T175 culture dish at the appropriate dilution. All cell lines were routinely tested for mycoplasma contamination. Tissue type and mutational status of each cell line can be found in Table B.
(§2) AlphaLISA® SureFire® Ultra™ p-ERK ½ (Thr202/Tyr204) analysis was conducted on cells plated in 100 μL of complete RPMI-1640 growth medium in 96-well flat-bottomed transparent dishes (Costar) at a density indicated in Table C. Cells were maintained overnight at 37° C. under 5% CO2 before treatment with compounds' dilution series for one hour. The cell density in cells/cm^2 corresponds to cell number divided by the area of one well of a 96-well plate ([…]).
(§3) In a dilution series 100 μL/well of test substance dilution prepared in complete RPMI-1640 growth media was added to the cells. The dilution series is selected so that ten concentrations cover a range from 30 μM or 10 μM to 0.33 nM. If necessary, the initial concentration of 10 μM is increased to 100 μM or lowered to 1 μM (as in the case of A375 and NCIH1666 cells, which are generally more sensitive to the compounds) and further dilution is carried out accordingly. The final concentration of DMSO in the assay is set at 0.5%.
(§4) After treatment, media was removed, and cells were lysed in 50 μL of 1× AlphaScreen Ultra Lysis Buffer (Perkin Elmer). The AlphaLISA® SureFire® Ultra™ p-ERK ½ (Thr202/Tyr2O4) (PerkinElmer) reactions were performed with 5 μL of cell lysate according to the manufacturer's specifications in 384-well proxyplates (Perkin Elmer) followed by overnight incubation of the reactions at room temperature in a humidified chamber. After completion of the reactions, the signals were recorded on an EnVision plate reader (Perkin Elmer) using built in AlphaLISA® settings.
(§5) The effect of each compound dilution on the pERK signal was expressed in % inhibition and calculated as follows. An internal 100% inhibition control (1 μM trametinib, cat. No. HY-10999; MedChem Express; CAS No. 871700-17-3) was included in each plate and used as a measure of pERK background. First, the value obtained for trametinib was subtracted from each data point. The average of DMSO (vehicle) controls (set as 0% inhibition) was established and used to calculate % inhibition:
(§6) The ability of each compound to inhibit pERK signal was expressed as an IC50 value obtained by plotting the inhibition values for each data point of a dilution series and fitting the obtained curves using a log(agonist) versus response−variable slope (four parameters) function using GraphPadPrism (V7.0).
(§7) When present, paradoxical pERK induction is inferred from the negative % inhibition values observed in the pERK IC50 curves of a compound.
A general note: In Alpha technology, singlet oxygen from a donor bead excites a nearby acceptor bead.

Experiment [2] concerns SW480 pERK. Described as above. It counts as cell-based, human. To be noted: Table 3; for IC50: 1 h treatment, read-out: SW480 PERK IC50; for SW480 (Ymin %): lowest value of the pERK IC50 curve. Here is the method:
as §1, §2, §3, §4, §5, §6, §7

Structures are written as SMILES.

`COc1ccc(S(=O)(=O)Nc2ccc(F)c(Nc3ncnc4cnc(-n5ccnc5)nc34)c2F)cc1` [Example 35]: in experiment [1], the IC50 was in the range of 10 to 30 µM and the “HCT116 (Ymin %)” value is recorded as −4%. In experiment [2], the IC50 fell in the range of 1 to 10 µM and the “SW480 (Ymin %)” value stood at 14%.

`COc1ccc(S(=O)(=O)Nc2ccc(F)c(Nc3ncnc4cnc(-n5cnc6ccccc65)nc34)c2F)cc1` [Example 36]: in experiment [1], the IC50 lay in the range of 1 to 10 µM and the “HCT116 (Ymin %)” value was 10%. Further, in experiment [2], the half-inhibitory concentration (IC50) is 1 to 10 µM and the “SW480 (Ymin %)” value is on record as 10%.

`COc1ccc(S(=O)(=O)Nc2ccc(F)c(Nc3ncnc4cnc(-n5cc(C)nc5C)nc34)c2F)cc1` [Example 37]: in experiment [1], the IC50 is 1 to 10 µM and the “HCT116 (Ymin %)” value is recorded as −5%. In addition, in experiment [2], the IC50 lay within 1 to 10 µM and the “SW480 (Ymin %)” value is recorded as −6%.

Turning to `COc1ccc(S(=O)(=O)Nc2ccc(F)c(Nc3ncnc4cnc(N5CC[C@@H](F)C5)nc34)c2F)cc1` [Example 38], in experiment [1], the IC50 is 10 to 30 µM and the “HCT116 (Ymin %)” value is −1%. For the same molecule, in experiment [2], the IC50 is 10 to 30 µM and the “SW480 (Ymin %)” value is −3%.

As to `COc1ccc(S(=O)(=O)Nc2ccc(F)c(Nc3ncnc4cnc(N5CCC(F)(F)C5)nc34)c2F)cc1` [Example 39], in experiment [1], the IC50 lay within 10 to 30 µM and the “HCT116 (Ymin %)” value turned out to be 5%. Further, in experiment [2], the IC50 was 10 to 30 µM and the “SW480 (Ymin %)” value is listed as −3%.

In the case of `COc1ccc(S(=O)(=O)Nc2ccc(F)c(Nc3ncnc4cnc(-n5cnc(C)c5C)nc34)c2F)cc1` [Example 40], in experiment [1], the IC50 lay in the range of 1 to 10 µM and the “HCT116 (Ymin %)” value is on record as 12%. In experiment [2], the IC50 fell in the range of 1 to 10 µM and the “SW480 (Ymin %)” value is given as −7%.

Turning to `COc1ccc(S(=O)(=O)Nc2ccc(F)c(Nc3ncnc4cnc(N5CCC(O)C5)nc34)c2F)cc1` (centres unmarked) [Example 41], in experiment [1], the IC50 is 10 to 30 µM and the “HCT116 (Ymin %)” value was 13%. Besides, in experiment [2], the IC50 lay in the range of 10 to 30 µM and the “SW480 (Ymin %)” value is 6%.

Consider `COc1ccc(S(=O)(=O)Nc2ccc(F)c(Nc3ncnc4cnc(N5CCC(O)C5)nc34)c2F)cc1` (centres unmarked) [Example 42], for which, in experiment [1], the IC50 fell in the range of 10 to 30 µM and the “HCT116 (Ymin %)” value is listed as −2%. For the same molecule, in experiment [2], the IC50 lay within 10 to 30 µM and the “SW480 (Ymin %)” value is 11%.

Take `COc1ccc(S(=O)(=O)Nc2ccc(F)c(Nc3ncnc4cnc(N5CCC5)nc34)c2F)cc1` [Example 43]: in experiment [1], the IC50 lay within 10 to 30 µM and the “HCT116 (Ymin %)” value was 11%. Also, in experiment [2], the IC50 was in the range of 10 to 30 µM and the “SW480 (Ymin %)” value was 0%.

As to `COc1ccc(S(=O)(=O)Nc2ccc(F)c(Nc3ncnc4cnc(N5CC[C@H](F)C5)nc34)c2F)c(F)c1` [Example 44], in experiment [1], the IC50 is 1 to 10 µM and the “HCT116 (Ymin %)” value is listed as −2%. Moreover, in experiment [2], the IC50 lay within 1 to 10 µM and the “SW480 (Ymin %)” value came out at 12%.

Consider `COc1ccc(S(=O)(=O)Nc2ccc(F)c(Nc3ncnc4cnc(-n5cnc6ccccc65)nc34)c2F)c(F)c1` [Example 45], for which, in experiment [1], the IC50 is 1 to 10 µM and the “HCT116 (Ymin %)” value came to 11%. In addition, in experiment [2], the IC50 fell in the range of 1 to 10 µM and the “SW480 (Ymin %)” value is −8%.

`COc1ccc(S(=O)(=O)Nc2ccc(F)c(Nc3ncnc4cnc(OC)nc34)c2F)cc1` [Example 46]: in experiment [1], the IC50 was 10 to 30 µM and the “HCT116 (Ymin %)” value worked out at 8%. In experiment [2], the IC50 lay in the range of 10 to 30 µM and the “SW480 (Ymin %)” value is listed as 12%.

Take `COc1ccc(S(=O)(=O)Nc2ccc(F)c(Nc3ncnc4cnc(N5CC(F)C5)nc34)c2F)cc1` [Example 47]: in experiment [1], the IC50 is 1 to 10 µM and the “HCT116 (Ymin %)” value amounted to 6%. Further, in experiment [2], the IC50 lay in the range of 1 to 10 µM and the “SW480 (Ymin %)” value is −1%.

As to `COc1ccc(S(=O)(=O)Nc2ccc(F)c(Nc3ncnc4cnc(N5CC(F)(F)C5)nc34)c2F)cc1` [Example 48], in experiment [1], the IC50 lay in the range of 1 to 10 µM and the “HCT116 (Ymin %)” value is given as 13%. In addition, in experiment [2], the half-inhibitory concentration (IC50) fell in the range of 1 to 10 µM and the “SW480 (Ymin %)” value is recorded as 6%.

On to `COc1ccc(S(=O)(=O)Nc2ccc(F)c(Nc3ncnc4cnc(Oc5cccc(C#N)c5)nc34)c2F)cc1` [Example 49], for which, in experiment [1], the IC50 fell in the range of 10 to 30 µM and the “HCT116 (Ymin %)” value stood at 8%. For the same molecule, in experiment [2], the IC50 lay in the range of 10 to 30 µM and the “SW480 (Ymin %)” value was −9%.

With `COc1ccc(S(=O)(=O)Nc2ccc(F)c(Nc3ncnc4cnc(N5CC(F)(F)C5)nc34)c2F)c(F)c1` [Example 50], in experiment [1], the 50% inhibitory concentration (IC50) was in the range of 1 to 10 µM and the “HCT116 (Ymin %)” value worked out at 8%. Besides, in experiment [2], the IC50 was 1 to 10 µM and the “SW480 (Ymin %)” value is −9%.

Take `COc1ccc(S(=O)(=O)Nc2ccc(F)c(Nc3ncnc4cnc(N5CC(F)C5)nc34)c2F)c(F)c1` [Example 52]: in experiment [1], the IC50 fell in the range of 1 to 10 µM and the “HCT116 (Ymin %)” value is on record as −4%. Moreover, in experiment [2], the IC50 is 1 to 10 µM and the “SW480 (Ymin %)” value is −8%.

Regarding `COc1ccc(S(=O)(=O)Nc2ccc(F)c(Nc3ncnc4cnc(-n5cnc(C)c5C)nc34)c2F)c(F)c1` [Example 53], in experiment [1], the IC50 lay within 1 to 10 µM and the “HCT116 (Ymin %)” value was determined as 15%. In addition, in experiment [2], the IC50 was in the range of 1 to 10 µM and the “SW480 (Ymin %)” value is reported as −4%.

On to `COc1ccc(S(=O)(=O)Nc2ccc(F)c(Nc3ncnc4cnc(Oc5cccc(N)c5)nc34)c2F)cc1` [Example 54], for which, in experiment [1], the IC50 lay in the range of 10 to 30 µM and the “HCT116 (Ymin %)” value is −7%. In experiment [2], the IC50 was 10 to 30 µM and the “SW480 (Ymin %)” value is 8%.

Turning to `COc1ccc(S(=O)(=O)Nc2ccc(F)c(Nc3ncnc4cnc(-n5cnc6ccccc65)nc34)c2F)c(C)c1` [Example 55], in experiment [1], the IC50 was in the range of 1 to 10 µM and the “HCT116 (Ymin %)” value was −4%. Also, in experiment [2], the IC50 lay within 1 to 10 µM and the “SW480 (Ymin %)” value is given as −2%.

`COc1ccc(S(=O)(=O)Nc2ccc(F)c(Nc3ncnc4cnc(-n5cnc(C)c5C)nc34)c2F)c(C)c1` [Example 56]: in experiment [1], the IC50 fell in the range of 1 to 10 µM and the “HCT116 (Ymin %)” value is reported as −10%. Besides, in experiment [2], the IC50 was in the range of 1 to 10 µM and the “SW480 (Ymin %)” value is recorded as 4%.

Consider `CO[C@@H]1CCN(S(=O)(=O)Nc2ccc(F)c(Nc3ncnc4cnc(-n5cnc6ccccc65)nc34)c2F)C1` [Example 59], for which, in experiment [1], the IC50 fell in the range of 0.5 to 1 µM and the “HCT116 (Ymin %)” value is recorded as 11%. In experiment [2], the IC50 was 0.5 to 1 µM and the “SW480 (Ymin %)” value was found to be 2%.

As to `CO[C@@H]1CCN(S(=O)(=O)Nc2ccc(F)c(Nc3ncnc4cnc(N5CC[C@H](F)C5)nc34)c2F)C1` [Example 60], in experiment [1], the IC50 fell in the range of 1 to 10 µM and the “HCT116 (Ymin %)” value amounted to 9%. In experiment [2], the IC50 was in the range of 1 to 10 µM and the “SW480 (Ymin %)” value is listed as 15%.

For the molecule `O=S(=O)(Nc1ccc(F)c(Nc2ncnc3cnc(N4CC[C@H](F)C4)nc23)c1F)c1ccc(Cl)cc1Cl` [Example 61], in experiment [1], the IC50 was in the range of 1 to 10 µM and the “HCT116 (Ymin %)” value turned out to be 11%. Moreover, in experiment [2], the IC50 is 1 to 10 µM and the “SW480 (Ymin %)” value is reported as 9%.

Take `O=S(=O)(Nc1ccc(F)c(Nc2ncnc3cnc(-n4cnc5ccccc54)nc23)c1F)c1ccc2c(c1)CCO2` [Example 64]: in experiment [1], the IC50 lay within 1 to 10 µM and the “HCT116 (Ymin %)” value was 2%. Besides, in experiment [2], the IC50 is 1 to 10 µM and the “SW480 (Ymin %)” value amounted to 19%.

Regarding `Cc1ncn(-c2ncc3ncnc(Nc4c(F)ccc(NS(=O)(=O)c5ccc6c(c5)CCO6)c4F)c3n2)c1C` [Example 65], in experiment [1], the IC50 lay within 1 to 10 µM and the “HCT116 (Ymin %)” value is given as 4%. In experiment [2], the IC50 was 1 to 10 µM and the “SW480 (Ymin %)” value turned out to be 5%.

As usually defined, the IC50 is the midpoint of a concentration-inhibition curve.

For the origin of these results see US20240239801A1, “PYRIMIDO[5,4,D]PYRIMIDINE COMPOUNDS, COMPOSITIONS COMPRISING THEM AND USES THEREOF” (Université de Montréal, priority 2021, published 2024).
